# Measurements: US11033506B2, “External skin preparation comprising a core-shell structure” (SEKISUI CHEMICAL CO., LTD., priority 2017, dated 2021)
# Test: Octanol/water partition coefficient
# Format: physicochemical
# Conditions: Log10 (octanol phase/aqueous phase), aqueous buffer solution of pH 7
# Excerpt: Specifically, the octanol/water partition coefficient can be determined by calculation using an equation: Octanol/water partition coefficient=Log10 (concentration in an octanol phase/concentration in an aqueous phase).
logD (octanol/aqueous buffer solution (pH 7)),SMILES,octanol/water partition coefficient
,O=C(O)c1cc(/N=N/c2ccc(S(=O)(=O)Nc3ccccn3)cc2)ccc1O [sulfasalazine],2.3
4.5,O=C1CCc2ccc(OCCCCN3CCN(c4cccc(Cl)c4Cl)CC3)cc2N1 [aripiprazole],4.5
